Patent EP2611798B1, “PYRIDAZINONES, METHOD OF MAKING, AND METHOD OF USE THEREOF” (Gilead Connecticut, Inc., priority 2010, dated 2012)

What was measured:
CD86 surface expression = experiment: CD86 Inhibition Assay (Example 905), inhibition of B cell activity in total mouse splenocytes; assay type: cell-based, Balb/c mice; details: Splenocyte; total mouse splenocytes stimulated with 15 µg/ml IgM for 24 hr; gated on CD19+/7AAD- population
Description: A CD86 Inhibition assay can be conducted on Formula I compounds for the inhibition of B cell activity using total mouse splenocytes purified from spleens of 8-16 week old Balb/c mice (Example 905).
A generalized procedure for a standard assay for the inhibition of B cell activity that can be used to test Formula I compounds is as follows. Total mouse splenocytes are purified from spleens of 8-16 week old Balb/c mice by red blood cell lysis (BD Pharmingen #555899). Testing compounds are diluted to 0.5% DMSO and incubated with 1.25 x 10^6 splenocytes in a final volume of 200 µl in flat clear bottom plates (Falcon 353072) for 60 min at 37°C. Cells are then stimulated with the addition of 15 µg/ml IgM (Jackson ImmunoResearch 115-006-020), and incubated for 24 hr at 37°C, 5% CO2. Following the 24 hr incubation, cells are transferred to conical bottom clear 96-well plates and pelleted by centrifugation at 1200 x g x 5 min. Cells are preblocked by CD16/CD32 (BD Pharmingen #553142), followed by triple staining with CD19-FITC (BD Pharmingen #553785), CD86-PE (BD Pharmingen #553692), and 7AAD (BD Pharmingen #51-68981E). Cells are sorted on a BD FACSCalibur and gated on the CD19^+/7AAD^- population. The levels of CD86 surface expression on the gated population is measured versus test compound concentration. Exemplary results are in Table 3.

[1] = test system: production of CD69 by B lymphocytes in human whole blood; experiment: CD69 Whole Blood Assay (Example 907); assay type: cell-based; details: Lymphocyte; human whole blood activated with goat F(ab')2 anti-human IgM, 20 hours; percent CD69 positive cells that are also CD20 positive
Excerpt: A CD69 Whole Blood Assay can be conducted on Formula I compounds to determine the ability of compounds to inhibit the production of CD69 by B lymphocytes in human whole blood activated by crosslinking surface IgM with goat F(ab')2 anti-human IgM (Example 907).
Human blood is obtained from healthy volunteers, with the following restrictions: 1 week drug-free, non-smokers. Blood (approximately 20 mls to test 8 compounds) is collected by venipuncture into Vacutainer® (Becton, Dickinson and Co.) tubes with sodium heparin.
Solutions of Formula I compounds at 10 mM in DMSO are diluted 1:10 in 100% DMSO, then are diluted by three-fold serial dilutions in 100% DMSO for a ten point dose-response curve. The compounds are further diluted 1:10 in PBS and then an aliquot of 5.5 µl of each compound is added in duplicate to a 2 ml 96-well plate; 5.5 µl of 10% DMSO in PBS is added as control and no-stimulus wells. Human whole blood - HWB (100 µl) is added to each well. After mixing the plates are incubated at 37 °C, 5% CO2, 100% humidity for 30 minutes. Goat F(ab')2 anti-human IgM (10 µl of a 500 µg/ml solution, 50 µg/ml final) is added to each well (except the no-stimulus wells) with mixing and the plates are incubated for an additional 20 hours. At the end of the 20 hour incubation, samples are incubated with fluorescent labeled antibodies for 30 minutes, at 37 °C, 5% CO2, 100% humidity. Include induced control, unstained and single stains for compensation adjustments and initial voltage settings. Samples are then lysed with PharM Lyse™ (BD Biosciences Pharmingen) according to the manufacturer's instructions. Samples are then transferred to a 96 well plate suitable to be run on the BD Biosciences HTS 96 well system on the LSRII machine. Data acquired and Mean Fluorescence Intensity values were obtained using BD Biosciences DIVA Software. Results are initially analyzed by FACS analysis software (Flow Jo). […] The IC50 values are calculated by Prism version 5, using a nonlinear regression curve fit.

[2] = target: T1, full length human wildtype Btk (Homo sapiens, UniProt Q06187); experiment: Biochemical Btk Kinase Assay (Example 901); details: time-resolved fluorescence, final ATP concentration 40 µM; alternatively Lanthascreen assay, ATP 25 uM
T1 construct: V5 (C); 6xHis (C); made in house; host or cells: Sf9 insect cells (baculovirus, pFastBac)
Description: Formula I compounds were tested by a standard biochemical Btk Kinase Assay (Example 901). A generalized procedure for a standard biochemical Btk Kinase Assay that can be used to test Formula I compounds is as follows. […] Btk enzyme is prepared as follows: full length human wildtype Btk (accession number NM-000061) with a C-terminal V5 and 6x His tag was subcloned into pFastBac vector for making baculovirus carrying this epitope-tagged Btk. Generation of baculovirus is done based on Invitrogen's instructions detailed in its published protocol "Bac-to-Bac Baculovirus Expression Systems" (Cat. Nos. 10359-016 and 10608-016). Passage 3 virus is used to infect Sf9 cells to overexpress the recombinant Btk protein. The Btk protein is then purified to homogeneity using Ni-NTA column. The purity of the final protein preparation is greater than 95% based on the sensitive Sypro-Ruby staining. A solution of 200 µM ATP is prepared in water and adjusted to pH7.4 with 1N NaOH. A quantity of 1.25 µL of compounds in 5%DMSO is transferred to a 96-well ½ area Costar polystyrene plate. Compounds are tested singly and with an 11-point dose-responsive curve (starting concentration is 10 µM; 1:2 dilution). A quantity of 18.75 µL of master mix minus enzyme (as a negative control) and master mix plus enzyme is transferred to appropriate wells in 96-well ½ area costar polystyrene plate. 5 µL of 200 µM ATP is added to that mixture in the 96-well ½ area Costar polystyrene plate for final ATP concentration of 40 µM. The reaction is allowed to incubate for 1 hour at room temperature. The reaction is stopped with Perkin Elmer 1X detection buffer containing 30 mM EDTA, 20 nM SA-APC, and 1 nM PT66 Ab. The plate is read using time-resolved fluorescence with a Perkin Elmer Envision using excitation filter 330 nm, emission filter 665 nm, and 2nd emission filter 615 nm. IC50 values are subsequently calculated. Alternatively, the Lanthascreen assay can be used to evaluate Btk activity through quantification of its phosphorylated peptide product. The FRET (Fluorescence Resonance Energy Transfer) that occurs between the fluorescein on the peptide product and the terbium on the detection antibody decreases with the addition of inhibitors of Btk that reduce the phosphorylation of the peptide. […] After incubation for 60 minutes at room temperature, the reaction is stopped by the addition of a final concentration of 2 nM Tb-PY20 detection antibody in 60 mM EDTA for 30 minutes at room temperature. Detection is determined on a Perkin Elmer Envision with 340 nm excitation and emission at 495 nm and 520 nm. Exemplary Btk inhibition IC50 values are in Tables and 2.

T1 sequence (Q06187 whole entry): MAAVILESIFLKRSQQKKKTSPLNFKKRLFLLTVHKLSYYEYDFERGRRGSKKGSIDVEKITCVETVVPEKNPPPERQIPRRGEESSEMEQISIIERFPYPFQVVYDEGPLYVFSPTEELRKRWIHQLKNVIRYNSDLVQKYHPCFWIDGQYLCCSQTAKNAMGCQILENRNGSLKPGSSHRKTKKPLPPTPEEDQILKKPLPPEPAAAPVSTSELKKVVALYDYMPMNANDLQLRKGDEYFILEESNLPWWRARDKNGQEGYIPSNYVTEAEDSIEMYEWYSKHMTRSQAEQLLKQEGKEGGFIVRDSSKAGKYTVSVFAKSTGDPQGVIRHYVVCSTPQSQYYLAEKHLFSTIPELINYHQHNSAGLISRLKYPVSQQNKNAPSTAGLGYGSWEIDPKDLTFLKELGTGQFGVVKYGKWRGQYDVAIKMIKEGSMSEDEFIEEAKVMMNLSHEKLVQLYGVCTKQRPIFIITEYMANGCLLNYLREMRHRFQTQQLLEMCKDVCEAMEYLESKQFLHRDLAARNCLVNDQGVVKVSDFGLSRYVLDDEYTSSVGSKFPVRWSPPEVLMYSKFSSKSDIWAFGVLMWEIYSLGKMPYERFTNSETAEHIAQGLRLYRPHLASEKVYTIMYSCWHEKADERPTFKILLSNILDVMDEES

SMILES	EC50 (CD86 surface expression) [nM]	IC50 [1] [nM]	IC50 [2] [nM]
Cc1c(-c2cc(Nc3cc4n(n3)CCN(C)C4)c(=O)[nH]n2)cc(F)cc1N1Cc2cc(C(C)(C)C)sc2C1=O [Compound 122, 6-(3-{2-tert-butyl-6-oxo-4H,5H,6H-thieno[2,3-c]pyrrol-5-yl}-5-fluoro-2-methylphenyl)-4-({5-methyl-4H,5H,6H,7H-pyrazolo[1,5-a]pyrazin-2-yl}amino)-2,3-dihydropyridazin-3-one]	211	101	
Cc1c(-c2cc(Nc3cc(C4CC4)[nH]n3)c(=O)[nH]n2)cccc1N1Cc2cc(C(C)(C)C)sc2C1=O [Compound 113, 6-(3-{2-tert-butyl-6-oxo-4H,5H,6H-thieno[2,3-c]pyrrol-5-yl}-2-methylphenyl)-4-[(5-cyclopropyl-1H-pyrazol-3-yl)amino]-2,3-dihydropyridazin-3-one]		213	4
CC(C)(C)c1cc2c(s1)C(=O)N(c1nc(-c3cc(Nc4cc(C5CC5)[nH]n4)c(=O)[nH]n3)ccc1F)C2 [Compound 116, 6-(6-{2-tert-butyl-6-oxo-4H,5H,6H-thieno[2,3-c]pyrrol-5-yl}-5-fluoropyridin-2-yl)-4-[(5-cyclopropyl-1H-pyrazol-3-yl)amino]-2,3-dihydropyridazin-3-one]		2500	35

The next lines start with results.

EC50 (CD86 surface expression) [nM]	IC50 [1] [nM]	SMILES	IC50 [2] [nM]
1200	410	Cn1nc(-c2ccc(F)c(N3Cc4cc(C(C)(C)C)sc4C3=O)c2CO)cc(Nc2cc(C3CC3)[nH]n2)c1=O [Compound 142, 6-(3-{2-tert-butyl-6-oxo-4H,5H,6H-thieno[2,3-c]pyrrol-5-yl} -4-fluoro-2-(hydroxymethyl)phenyl)-4-[(5-cyclopropyl-1H-pyrazol-3-yl)amino]-2-methyl-2,3-dihydropyridazin-3-one]	
	147	Cn1nc(-c2cccc(N3Cc4cc(C(C)(C)C)sc4C3=O)c2CO)cc(Nc2cc3n(n2)CCN(C2CC2)C3)c1=O [Compound 133, 6-(3-{2-tert-butyl-6-oxo-4H,5H,6H-thieno[2,3-c]pyrrol-5-yl}-2-(hydroxymethyl)phenyl)-4-({5-cyclopropyl4H,5H,6H,7H-pyrazolo[1,5-a]pyrazin-2-yl}amino)-2-methyl-2,3-dihydropyridazin-3-one]	
